Results on 20 molecules are retold here after patent US20190152992A1, “BENZODIOXANE DERIVATIVES AND THEIR PHARMACEUTICAL USE” (Orion Corporation, priority 2016, published 2019).

Structures can show the parent of a compound that is named as a salt. A value given as a limit tells only on which side of the number the result lay.

One assay deals with T1, human alpha2A receptors (Homo sapiens, UniProt P08913).
T1 sequence (P08913 1-465): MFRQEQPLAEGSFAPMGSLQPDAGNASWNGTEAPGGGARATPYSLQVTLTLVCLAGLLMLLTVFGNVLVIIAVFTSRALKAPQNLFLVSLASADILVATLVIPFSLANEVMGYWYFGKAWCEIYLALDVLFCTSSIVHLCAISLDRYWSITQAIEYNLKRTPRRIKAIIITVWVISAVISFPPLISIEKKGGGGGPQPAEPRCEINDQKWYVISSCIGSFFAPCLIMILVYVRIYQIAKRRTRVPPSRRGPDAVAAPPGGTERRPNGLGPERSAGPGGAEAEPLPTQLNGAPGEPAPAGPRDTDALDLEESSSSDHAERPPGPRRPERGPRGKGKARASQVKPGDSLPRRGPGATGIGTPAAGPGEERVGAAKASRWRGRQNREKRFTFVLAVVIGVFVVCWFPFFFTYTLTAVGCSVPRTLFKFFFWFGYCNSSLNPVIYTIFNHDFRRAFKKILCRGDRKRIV
Description: cell-based.

Another assay addresses T2, human alpha2C receptors (Homo sapiens, UniProt P18825).
T2 sequence (P18825 1-462): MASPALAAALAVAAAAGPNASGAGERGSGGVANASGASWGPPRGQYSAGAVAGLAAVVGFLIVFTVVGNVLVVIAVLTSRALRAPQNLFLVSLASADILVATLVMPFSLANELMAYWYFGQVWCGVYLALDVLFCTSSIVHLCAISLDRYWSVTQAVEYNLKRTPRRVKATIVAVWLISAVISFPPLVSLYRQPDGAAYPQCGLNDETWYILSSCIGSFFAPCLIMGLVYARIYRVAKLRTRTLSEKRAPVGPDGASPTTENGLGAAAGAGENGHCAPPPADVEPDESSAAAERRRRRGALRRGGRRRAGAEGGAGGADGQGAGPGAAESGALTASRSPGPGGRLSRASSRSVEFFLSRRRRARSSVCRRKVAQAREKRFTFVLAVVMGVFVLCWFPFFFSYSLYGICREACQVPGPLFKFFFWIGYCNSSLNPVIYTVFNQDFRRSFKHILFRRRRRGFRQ
The assay can be described thus: Determination of alpha2C antagonistic activity in vitro (FLIPR calcium assay). The settings on record: for Kb: Alpha 2C Adrenaline Kb, Kb calculated from IC50 with the Cheng-Prusoff equation, adrenaline as agonist, CHO cells, human alpha2C.

Description for human alpha2C receptors: Experiment 1: Determination of alpha2A and alpha2C Antagonistic Activity In Vitro
The growth medium was removed and the cells were incubated with the test compounds and the FLIPR Calcium 6 Assay reagent (Molecular Devices, CA, USA) for 2 h at 37° C. in dark. The test compounds (concentrations in cells 100 pM-10 μM) were dissolved in Probenecid-Ringer consisting of 150 mM NaCl, 3 mM KCl, 1.2 mM MgCl2, 1 mM CaCl2, 5 mM glucose, 20 mM HEPES and 2.5 mM probenecid (pH 7.4 adjusted with 1.0 M NaOH). […] All experiments were performed at 37° C. For agonism measurements the test compounds dissolved in Probenecid-Ringer were applied by FLIPR Tetra at 15 s time point. In order to determine antagonism, the cells were stimulated either with 100 nM adrenaline or noradrenaline and the test compounds were added to the cells 2 h before the experiment with the FLIPR Calcium 6 Assay reagent. […] Typically, there were four replicates at each concentration and six different dose levels. […] The minimum fluorescence value subtracted from the maximum value for each well was used in the calculations. ScreenWorks version 4.0 software was used for analyzing the results. Fitting of the antagonist dose-response results was performed with the free Hill equation and the IC50 values were fitted with IDBS XE software using model 200: y=(A+(B/(1+((x/C)̂D)))), where A is the curve maximum, B the curve minimum and C equals the EC50 value. D is slope factor (Hill). Kb was calculated with the Cheng-Prusoff equation Kb=A/((B/C)+1), where A is the IC50 of antagonist, B the concentration of agonist and C the EC50 of the agonist.

The term IC50 denotes the concentration needed to halve the response being measured. With `Cc1nc2ccc(Cl)cc2n1[C@H]1CCCN(C[C@H]2COc3ccccc3O2)C1` [example 90, 6-Chloro-1-((S)-1-(((S)-2,3-dihydrobenzo[b][1,4]dioxin-2-yl)methyl)piperidin-3-yl)-2-methyl-1H-benzo[d]imidazole], the values for the IC50 at human alpha2A receptors and on human alpha2C receptors were 11100 nM and under 0.1 nM, respectively. The Kb was 498 nM at human alpha2A receptors and under 0.01 nM at human alpha2C receptors.
The like results for `Clc1ccc2c(c1)ncn2[C@H]1CCCN(C[C@H]2COc3ccccc3O2)C1` [example 91, 5-Chloro-1-((S)-1-(((S)-2,3-dihydrobenzo[b][1,4]dioxin-2-yl)methyl)piperidin-3-yl)-1H-benzo[d]imidazole] were, in that order, over 10000 nM, under 0.1 nM, over 449 nM and under 0.01 nM.
`O=C1C2CCCC2C(=O)N1[C@H]1CCCN(C[C@H]2COc3ccccc3O2)C1` (stereo partly drawn) [example 92, 2-((S)-1-(((S)-2,3-Dihydrobenzo[b][1,4]dioxin-2-yl)methyl)piperidin-3-yl)tetrahydrocyclopenta[c]pyrrole-1,3(2H,3aH)-dione hydrochloride]: at human alpha2A receptors, the IC50 is over 10000 nM and the Kb was over 449 nM. Besides, at human alpha2C receptors, the IC50 came out at 0.15 nM and the Kb was 0.02 nM.
As for `O=C1[C@H]2CCCC[C@H]2C(=O)N1[C@H]1CCCN(C[C@H]2COc3ccccc3O2)C1` [example 93, (3aR,7aS)-2-((S)-1-(((S)-2,3-Dihydrobenzo[b][1,4]dioxin-2-yl)methyl)piperidin-3-yl)hexahydro-1H-isoindole-1,3(2H)-dione hydrochloride], at human alpha2A receptors, the IC50 is over 10000 nM and the Kb was over 449 nM. In addition, at human alpha2C receptors, the IC50 was 0.091 nM and the Kb was 0.009 nM.
On human alpha2A receptors, `O=C1C2=C(CCCC2)C(=O)N1[C@H]1CCCN(C[C@H]2COc3ccccc3O2)C1` [example 94, 2-((S)-1-(((S)-2,3-Dihydrobenzo[b][1,4]dioxin-2-yl)methyl)-piperidin-3-yl)-4,5,6,7-tetrahydro-1H-isoindole-1,3(2H)-dione hydrochloride] returned an IC50 of over 10000 nM and a Kb of over 449 nM. Besides, at human alpha2C receptors, the IC50 was under 0.1 nM and the Kb is under 0.01 nM.
On human alpha2A receptors, `O=C1C2CC2C(=O)N1[C@H]1CCCN(C[C@H]2COc3ccccc3O2)C1` (stereo partly drawn) [example 95, 3-((S)-1-(((S)-2,3-Dihydrobenzo[b][1,4]dioxin-2-yl)methyl)piperidin-3-yl)-3-azabicyclo[3.1.0]hexane-2,4-dione] gave an IC50 of 9440 nM and a Kb of 424 nM. For the same molecule, at human alpha2C receptors, the IC50 turned out to be 0.433 nM and the Kb is 0.044 nM.
With `CCN1C(=O)CC(=O)N([C@H]2CCCN(C[C@H]3COc4ccccc4O3)C2)C1=O` [example 96, 1-((S)-1-(((S)-2,3-Dihydrobenzo[b][1,4]dioxin-2-yl)methyl)-piperidin-3-yl)-3-ethylpyrimidine-2,4,6(1H,3H,5H)-trione], on human alpha2A receptors, the IC50 is over 10000 nM and the Kb was over 449 nM. Further, at human alpha2C receptors, the IC50 worked out at 15.1 nM and the Kb was 1.52 nM.
`CC1CCN([C@H]2CCCN(C[C@H]3COc4ccccc4O3)C2)C1=O` (stereo partly drawn) [example 97, 1-((S)-1-(((S)-2,3-Dihydrobenzo[b][1,4]dioxin-2-yl)methyl)-piperidin-3-yl)-3-methylpyrrolidin-2-one]: the IC50 at human alpha2A receptors is over 10000 nM; at human alpha2C receptors it was 1 nM. For the same molecule, the Kb on human alpha2A receptors was over 449 nM; on human alpha2C receptors it was 0.1 nM.
As to `CC1(C)CCN([C@H]2CCCN(C[C@H]3COc4ccccc4O3)C2)C1=O` [example 100, 1-((S)-1-(((S)-2,3-Dihydrobenzo[b][1,4]dioxin-2-yl)methyl)piperidin-3-yl)-3,3-dimethylpyrrolidin-2-one], at human alpha2A receptors, the IC50 is over 10000 nM and the Kb is over 449 nM. Moreover, on human alpha2C receptors, the IC50 came to 2.02 nM and the Kb was 0.203 nM.
Take `CN1CCN([C@H]2CCCN(C[C@H]3COc4ccccc4O3)C2)C1=O` [example 101, 1-((S)-1-(((S)-2,3-Dihydrobenzo[b][1,4]dioxin-2-yl)methyl)piperidin-3-yl)-3-methylimidazolidin-2-one]: the IC50 at human alpha2A receptors was over 10000 nM; at human alpha2C receptors, 0.78 nM. Moreover, the results for the Kb at human alpha2A receptors and on human alpha2C receptors were over 449 nM and 0.08 nM, respectively.
The like results for `CN1CC(=O)N([C@H]2CCCN(C[C@H]3COc4ccccc4O3)C2)C1=O` [example 103, 3-((S)-1-(((S)-2,3-Dihydrobenzo[b][1,4]dioxin-2-yl)methyl)piperidin-3-yl)-1-methylimidazolidine-2,4-dione] were, in that order, over 10000 nM, 3.17 nM, over 449 nM and 0.32 nM.
At human alpha2A receptors, `CC(C)N1CC(=O)N([C@H]2CCCN(C[C@H]3COc4ccccc4O3)C2)C1=O` [example 104, 3-((S)-1-(((S)-2,3-Dihydrobenzo[b][1,4]dioxin-2-yl)methyl)piperidin-3-yl)-1-isopropylimidazolidine-2,4-dione] showed an IC50 of over 10000 nM and a Kb of over 449 nM. Further, on human alpha2C receptors, the IC50 is 10 nM and the Kb was 1.01 nM.
On human alpha2A receptors, `CCN1CC(=O)N([C@H]2CCCN(C[C@H]3COc4ccccc4O3)C2)C1=O` [example 105, 3-((S)-1-(((S)-2,3-Dihydrobenzo[b][1,4]dioxin-2-yl)methyl)-piperidin-3-yl)-1-ethylimidazolidine-2,4-dione] yielded an IC50 of over 10000 nM and a Kb of over 449 nM. In addition, on human alpha2C receptors, the IC50 came out at 3.27 nM and the Kb is 0.33 nM.
`O=C1CN(C2CCCC2)C(=O)N1[C@H]1CCCN(C[C@H]2COc3ccccc3O2)C1` [example 106, 1-Cyclopentyl-3-((S)-1-(((S)-2,3-dihydrobenzo[b][1,4]dioxin-2-yl)methyl)piperidin-3-yl)imidazolidine-2,4-dione]: on human alpha2A receptors, the IC50 was over 10000 nM and the Kb is over 449 nM. In addition, on human alpha2C receptors, the IC50 came to 0.1 nM and the Kb is 0.01 nM.
At human alpha2A receptors, `CC(C)CN1CC(=O)N([C@H]2CCCN(C[C@H]3COc4ccccc4O3)C2)C1=O` [example 107, 3-((S)-1-(((S)-2,3-Dihydrobenzo[b][1,4]dioxin-2-yl)methyl)piperidin-3-yl)-1-isobutylimidazolidine-2,4-dione] came in with an IC50 of over 10000 nM and a Kb of over 449 nM. In addition, on human alpha2C receptors, the IC50 amounted to 0.284 nM and the Kb was 0.029 nM.
In the case of `O=C1CN(CC2CC2)C(=O)N1[C@H]1CCCN(C[C@H]2COc3ccccc3O2)C1` [example 108, 1-(Cyclopropylmethyl)-3-((S)-1-(((S)-2,3-dihydrobenzo[b][1,4]dioxin-2-yl)methyl)piperidin-3-yl)imidazolidine-2,4-dione], on human alpha2A receptors, the IC50 was over 10000 nM and the Kb was over 449 nM. For the same molecule, on human alpha2C receptors, the IC50 came out at 1.25 nM and the Kb was 0.13 nM.
`CN(C)C(=O)CN1CC(=O)N([C@H]2CCCN(C[C@H]3COc4ccccc4O3)C2)C1=O` [example 109, 2-(3-((S)-1-(((S)-2,3-Dihydrobenzo[b][1,4]dioxin-2-yl)methyl)piperidin-3-yl)-2,4-dioxoimidazolidin-1-yl)-N,N-dimethylacetamide]: the IC50 at human alpha2A receptors is over 10000 nM; on human alpha2C receptors, 0.117 nM. Besides, the results for the Kb at human alpha2A receptors and on human alpha2C receptors were over 449 nM and 0.014 nM, respectively.
`CN1C(=O)N([C@H]2CCCN(C[C@H]3COc4ccccc4O3)C2)C(=O)C1(C)C` [example 111, 3-((S)-1-(((S)-2,3-Dihydrobenzo[b][1,4]dioxin-2-yl)methyl)-piperidin-3-yl)-1,5,5-trimethylimidazolidine-2,4-dione]: on human alpha2A receptors, the IC50 was over 10000 nM and the Kb was over 449 nM. On human alpha2C receptors, the half-maximal inhibitory concentration (IC50) was 0.87 nM and the Kb was 0.09 nM.
As to `C[C@H]1NC(=O)N([C@H]2CCCN(C[C@H]3COc4ccccc4O3)C2)C1=O` [example 112, (R)-3-((S)-1-(((S)-2,3-Dihydrobenzo[b][1,4]dioxin-2-yl)methyl)-piperidin-3-yl)-5-methylimidazolidine-2,4-dione], the IC50 was over 10000 nM at human alpha2A receptors and 0.16 nM on human alpha2C receptors. Further, the figures for the Kb at human alpha2A receptors and at human alpha2C receptors were over 449 nM and 0.02 nM, respectively.
On human alpha2A receptors, `C[C@@H]1NC(=O)N([C@H]2CCCN(C[C@H]3COc4ccccc4O3)C2)C1=O` [example 113, (S)-3-((S)-1-(((S)-2,3-Dihydrobenzo[b][1,4]dioxin-2-yl)methyl)-piperidin-3-yl)-5-methylimidazolidine-2,4-dione] had an IC50 of over 10000 nM and a Kb of over 449 nM. Besides, at human alpha2C receptors, the IC50 stood at 0.175 nM and the Kb was 0.015 nM.
